Literature values in patent US7056534B2, “Coated potassium chloride granules and tablets” (Upsher-Smith Laboratories, Inc., priority 2001, dated 2006).
Like-named read-outs stand apart in the source and are kept apart here.

[Cl-].[K+] [Potassium chloride]
Solubility (acetone): insoluble
Volume of solvent in which 1 gram dissolves (boiling water): 1.8 mL
Solubility (ether): insoluble
Volume of solvent in which 1 gram dissolves (ethyl alcohol): about 250 ml
Volume of solvent in which 1 gram dissolves (glycerol): 14 mL
Volume of solvent in which 1 gram dissolves (water): 2.8 mL
